In publication PMC5036131, “Fragment-based discovery of a new family of non-peptidic small-molecule cyclophilin inhibitors with potent antiviral activities” (Nature Communications, 2016):
Where two headings read alike, the source gives them in different places.

Columns and labels:
HIV-IIIb = assay: Anti-HIV activity in MT4 cells; format: cell-based, human immunodeficiency virus; settings: 5 days
CYP2C19 = CYP2C19 (Homo sapiens, UniProt P33261); assay: Metabolism by recombinant human cytochrome P450, CYP2C19; format: in vitro ADME; settings: recombinant enzyme
Sequence of CYP2C19 (P33261 whole entry): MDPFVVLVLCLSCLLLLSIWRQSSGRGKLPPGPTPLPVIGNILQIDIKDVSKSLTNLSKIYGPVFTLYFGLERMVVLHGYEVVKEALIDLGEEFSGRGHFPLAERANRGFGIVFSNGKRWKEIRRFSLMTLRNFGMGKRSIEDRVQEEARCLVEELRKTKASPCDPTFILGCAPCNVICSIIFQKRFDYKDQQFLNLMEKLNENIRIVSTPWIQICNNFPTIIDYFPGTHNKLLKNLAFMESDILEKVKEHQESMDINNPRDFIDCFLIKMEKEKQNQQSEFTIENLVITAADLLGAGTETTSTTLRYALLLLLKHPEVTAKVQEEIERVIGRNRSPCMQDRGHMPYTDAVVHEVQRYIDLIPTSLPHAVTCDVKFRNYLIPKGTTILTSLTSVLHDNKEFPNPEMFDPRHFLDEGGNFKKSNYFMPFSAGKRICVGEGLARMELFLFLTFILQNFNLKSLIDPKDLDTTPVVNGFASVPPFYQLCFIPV
Method: (§1) […] of compound was incubated with individual bacterially expressed recombinant human cytochromes P450 co-expressed with human NADPH cytochrome P450 reductase. […] Enzyme-selective positive control substrates were tested in parallel.

[1] = Human plasma protein binding, equilibrium dialysis; format: in vitro ADME; settings: 2 μM, 37 °C, 3 h dialysis
Method: (§2) The extent of binding to pooled human plasma and to cell culture medium containing 10% fetal bovine serum was determined by equilibrium dialysis against isotonic phosphate buffer. Equilibrium dialysis was conducted at 37 °C with initial concentrations of compounds of 2 μM in the non-buffer matrix. A 3 h dialysis time was used for equilibration. Following dialysis, plasma samples were drained into pre-weighed polypropylene tubes containing buffer and buffer samples were drained into pre-weighed tubes containing blank plasma. Post-dialysis plasma and buffer weights were measured and recorded for concentration and recovery calculations. After precipitation and centrifugation, LC-MS/MS assays were used for the analysis of each of the protein/phosphate buffer-mixed matrices. Relative binding to human plasma and cell culture medium was determined in a similar manner, except that the two matrices were dialysed against each other directly and the compound was spiked into both matrices. After equilibration, the plasma sample was diluted with blank cell culture medium and the cell culture medium diluted with blank plasma.

Caco-2 cells = assay: Caco-2 cell permeability; format: in vitro ADME; settings: Caco-2 monolayers, 10 μM
Method: Permeability and efflux potential were determined using confluent (≥21 day) monolayers of Caco-2 cells grown on transwell filters. Compounds were added to donor wells at a target concentration of 10 μM and rates of appearance in receiver wells (containing 1% BSA to maintain sink conditions) were determined by liquid chromatography coupled to tandem mass spectrometry (LC-MS/MS).

CYP2D6 = CYP2D6 (Homo sapiens, UniProt P10635); assay: Cytochrome P450 enzyme inhibition assay, CYP2D6; format: in vitro ADME; set-up: incubated with human hepatic microsomal fractions and NADPH; from tissue; host or cells: human hepatic microsomal fractions; settings: human hepatic microsomal fractions, up to 25 μM
Sequence of CYP2D6 (P10635 whole entry): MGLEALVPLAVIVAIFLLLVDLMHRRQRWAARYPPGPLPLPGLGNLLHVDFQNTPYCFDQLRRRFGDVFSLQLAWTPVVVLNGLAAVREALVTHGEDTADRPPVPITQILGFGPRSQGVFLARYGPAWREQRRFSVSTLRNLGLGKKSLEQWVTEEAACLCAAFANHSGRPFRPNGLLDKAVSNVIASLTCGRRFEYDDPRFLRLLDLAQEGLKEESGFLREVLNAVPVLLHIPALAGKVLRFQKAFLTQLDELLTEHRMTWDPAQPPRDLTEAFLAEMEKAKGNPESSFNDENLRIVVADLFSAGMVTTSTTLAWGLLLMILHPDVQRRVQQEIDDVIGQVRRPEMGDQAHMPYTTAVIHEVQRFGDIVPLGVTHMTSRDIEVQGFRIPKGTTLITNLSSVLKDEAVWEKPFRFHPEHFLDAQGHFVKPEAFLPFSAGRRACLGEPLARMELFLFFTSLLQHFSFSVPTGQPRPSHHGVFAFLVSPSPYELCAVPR
Method: (§3) Up to 25 μM of compounds 29 and 30 was incubated with human hepatic microsomal fractions and NADPH in the presence of individual probe substrates. All assays were designed so that conditions were linear with respect to time and protein concentration. Substrates were present at concentrations equal to or lower than their respective Km values. Enzyme selective products were determined by fluorometry (ethoxyresorufin O-deethylase) or by specific LC-MS/MS assays. Relative enzyme activities were determined by comparison with those assayed with DMSO vehicle instead of inhibitor. IC50 values were calculated by nonlinear curve fitting using a sigmoidal model. Positive control inhibitors for each enzyme were tested in parallel.

[2] = Cell culture medium binding, equilibrium dialysis; format: in vitro ADME; settings: 2 μM, 37 °C, 3 h dialysis
Method: as §2

CYP2C9 = CYP2C9 (Homo sapiens, UniProt P11712); assay: Metabolism by recombinant human cytochrome P450, CYP2C9; format: in vitro ADME; settings: recombinant enzyme
Sequence of CYP2C9 (P11712 whole entry): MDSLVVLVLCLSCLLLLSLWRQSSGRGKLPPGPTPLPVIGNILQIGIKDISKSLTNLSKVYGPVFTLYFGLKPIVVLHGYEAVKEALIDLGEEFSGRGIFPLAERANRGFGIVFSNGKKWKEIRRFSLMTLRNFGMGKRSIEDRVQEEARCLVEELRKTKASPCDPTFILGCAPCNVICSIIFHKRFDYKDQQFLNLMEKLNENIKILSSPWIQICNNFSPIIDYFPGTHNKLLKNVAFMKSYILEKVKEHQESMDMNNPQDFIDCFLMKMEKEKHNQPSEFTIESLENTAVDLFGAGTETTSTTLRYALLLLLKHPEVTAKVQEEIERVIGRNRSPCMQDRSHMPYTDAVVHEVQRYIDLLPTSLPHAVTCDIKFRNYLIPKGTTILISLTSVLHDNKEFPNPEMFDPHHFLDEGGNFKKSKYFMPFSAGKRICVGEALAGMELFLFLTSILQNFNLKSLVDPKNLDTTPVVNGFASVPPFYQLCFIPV
Method: as §1

CYP2B6 = biological target: T1, CYP2B6 (Homo sapiens, UniProt P20813); assay: Cytochrome P450 enzyme inhibition assay, CYP2B6; format: in vitro ADME; set-up: incubated with human hepatic microsomal fractions and NADPH; from tissue; host or cells: human hepatic microsomal fractions; settings: human hepatic microsomal fractions, up to 25 μM
T1 sequence (P20813 1-491): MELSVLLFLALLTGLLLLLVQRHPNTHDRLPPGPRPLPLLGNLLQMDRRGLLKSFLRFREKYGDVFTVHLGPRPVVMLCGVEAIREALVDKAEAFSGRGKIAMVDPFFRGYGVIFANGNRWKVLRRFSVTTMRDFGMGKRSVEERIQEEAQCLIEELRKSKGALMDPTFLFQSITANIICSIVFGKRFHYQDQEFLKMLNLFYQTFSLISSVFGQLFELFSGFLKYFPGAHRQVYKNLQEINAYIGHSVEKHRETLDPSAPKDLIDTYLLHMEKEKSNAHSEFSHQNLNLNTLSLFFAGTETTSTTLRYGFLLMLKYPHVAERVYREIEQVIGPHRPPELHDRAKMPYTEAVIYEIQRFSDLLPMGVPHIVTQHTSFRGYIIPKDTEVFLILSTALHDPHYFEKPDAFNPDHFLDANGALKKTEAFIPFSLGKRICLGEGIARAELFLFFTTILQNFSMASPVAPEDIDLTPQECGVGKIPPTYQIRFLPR
Method: as §3

[3] = Stability with hepatic microsomal fractions; format: in vitro ADME; settings: human microsomes 0.5 mg protein/ml, NADPH, 3 μM
Method: The compounds (3 μM) were incubated in duplicate for up to 1 h in the presence of human hepatic microsomal fractions (0.5 mg protein ml^−1 final) at 37 °C. The addition of cofactor solution (NADPH generating system) initiated the reaction and aliquots were removed at 0, 5, 15, 30, 45 and 60 min after the start. The concentrations of the compounds in each sample were determined using specific LC-MS/MS assays. The half-life for the disappearance of each was determined by fitting the concentration-time data with a monophasic exponential model. A control compound (verapamil) was run in parallel to test the enzymatic integrity of the microsomal fractions.

Chemical stability, 24 h = format: physicochemical; settings: 37 °C, remaining
HCV genotype 1b replicon = assay: microbe, parasite or virus in culture; format: cell-based, hepatitis C virus

For `CSCCC(NC(=O)NCc1ccc(N)cc1)C(=O)N1CCCC1c1ccccc1SC.O=C(O)C(F)(F)F` (centres unmarked) [Compound 30], the EC50 (HIV-IIIb) was 15 ± 1.2 µM, the “Rate of metabolism by human cytochrome P450 CYP2C19” value (CYP2C19) was 6.21 pmol/pmol P450/min and the “Rate of metabolism by human cytochrome P450 CYP2C19” value (CYP2C19; listed as compound 30) was “metabolized at the highest rate”. The “Human plasma binding Bound” value [1] was 85.1%, the “Human plasma binding Unbound” value [1] was 14.9% and the “Apparent permeability Forward” value (Caco-2 cells) was 19.5 ×10⁻⁶ cm/s. For the same compound, the “Apparent permeability Forward” value (Caco-2 cells; listed as compound 30) was “high”, the “Apparent permeability Reverse” value (Caco-2 cells; reverse) was 39.7 ×10⁻⁶ cm/s and the “Inhibition of cytochrome P450 activity, IC50 CYD2D6” value (CYP2D6) was “Neither compound 29 nor compound 30 significantly inhibited”. The IC50 (CYP2D6; read-out: Inhibition of cytochrome P450 activity, IC50 CYD2D6) was > 25 µM, the “Cell culture medium (CCM) binding Unbound” value [2] was 23.2% and the “Rate of metabolism by human cytochrome P450 CYP2C9” value (CYP2C9) was 0.49 pmol/pmol P450/min. For the same compound, the IC50 (CYP2B6) was > 25 µM, the “Inhibition of cytochrome P450 activity, IC50 CYP2B6” value (CYP2B6) was “Neither compound 29 nor compound 30 significantly inhibited” and the “Hepatic microsomal stability, T1/2” value [3] was 35.5 min. The “24-hour stability HCl (pH 1.0)” value (Chemical stability, 24 h) was 92%, the “24-hour stability PBS (pH 7.4)” value (Chemical stability, 24 h) was 100% and the “24-hour stability PBS (pH 7.4)” value (Chemical stability, 24 h; listed as compound 30) was “not degraded”. The EC50 (HCV genotype 1b replicon; Huh7 cells, 3 days, HCV RNA, read-out: HCV genotype 1b replicon EC50) was 1.4 ± 1.2 µM and the EC50 (HCV genotype 1b replicon; wild-type genotype 1b replicon, comparison with mutated replicons (Table 3), read-out: EC50 HCV (WT) subgenomic replicon) was 2.1 ± 0.09 µM.
